Source: US10626112B2, “Heterocyclic sulfonamide derivative and medicine comprising same” (EA PHARMA CO., LTD., priority 2014, dated 2020)

Target: human TRPA1 (Homo sapiens (Human), UniProt O75762)
Test: Measurement of TRPA1 antagonist activity (1): intracellular calcium increase
Type: cell-based
Conditions: 293T cells transfected with human TRPA1 expression plasmid; allylisothiocyanate 20 μM stimulation; intracellular calcium fluorescence; read-out: hTRPA1 IC50
Summary of the method: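 HEK293T cells transiently transfected with full-length human TRPA1, loaded with Calcium4 dye in HBSS/20 mM HEPES pH 7.2. Test compound preincubated 10 min, then allylisothiocyanate added at 20 μM final and fluorescence change followed for 5 min. IC50 from sigmoid fit of percent inhibition relative to agonist and buffer controls.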

human TRPA1, sequence (O75762 whole entry): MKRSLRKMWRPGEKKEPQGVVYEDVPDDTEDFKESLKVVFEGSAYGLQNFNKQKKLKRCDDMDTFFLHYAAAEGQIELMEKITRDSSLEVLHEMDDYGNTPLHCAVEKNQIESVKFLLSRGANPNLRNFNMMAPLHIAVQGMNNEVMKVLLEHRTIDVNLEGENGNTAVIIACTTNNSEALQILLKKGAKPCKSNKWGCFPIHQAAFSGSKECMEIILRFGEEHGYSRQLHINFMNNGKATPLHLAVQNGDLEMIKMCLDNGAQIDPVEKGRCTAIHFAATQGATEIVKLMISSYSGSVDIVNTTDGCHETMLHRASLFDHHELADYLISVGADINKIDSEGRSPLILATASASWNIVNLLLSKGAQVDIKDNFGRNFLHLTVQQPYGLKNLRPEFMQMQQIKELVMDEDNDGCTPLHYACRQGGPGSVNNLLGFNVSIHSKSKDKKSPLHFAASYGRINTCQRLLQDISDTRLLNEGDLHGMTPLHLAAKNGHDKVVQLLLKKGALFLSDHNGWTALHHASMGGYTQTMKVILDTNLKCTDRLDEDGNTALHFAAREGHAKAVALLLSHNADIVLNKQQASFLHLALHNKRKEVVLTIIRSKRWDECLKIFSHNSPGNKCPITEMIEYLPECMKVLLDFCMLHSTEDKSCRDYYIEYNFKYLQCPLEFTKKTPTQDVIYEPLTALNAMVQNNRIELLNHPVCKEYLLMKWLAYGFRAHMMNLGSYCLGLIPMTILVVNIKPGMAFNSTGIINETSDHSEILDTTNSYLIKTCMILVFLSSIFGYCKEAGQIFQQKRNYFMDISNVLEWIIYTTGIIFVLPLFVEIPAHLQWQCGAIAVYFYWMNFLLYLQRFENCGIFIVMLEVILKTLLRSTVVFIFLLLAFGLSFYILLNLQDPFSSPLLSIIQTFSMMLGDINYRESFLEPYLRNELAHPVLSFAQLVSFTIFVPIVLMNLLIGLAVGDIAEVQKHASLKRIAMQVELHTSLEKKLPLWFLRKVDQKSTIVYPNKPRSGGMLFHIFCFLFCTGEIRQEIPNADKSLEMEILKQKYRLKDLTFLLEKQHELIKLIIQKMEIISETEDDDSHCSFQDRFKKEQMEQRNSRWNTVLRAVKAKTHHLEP

Structure (SMILES) | IC50
O=C(NCc1ccc(Oc2cccc(C(F)(F)F)c2)cc1)[C@@H]1CCCN1S(=O)(=O)c1cc2ccccc2o1 [Example 50, (2S)-1-(benzofuran-2-ylsulfonyl)-N-[[4-[3-(trifluoromethyl)phenoxy]phenyl]-methyl]pyrrolidine-2-carboxamide] | 160 nM
O=C(NCc1cccc(Nc2ccc(C(F)(F)F)cc2)c1)[C@@H]1CCCN1S(=O)(=O)c1cc2cc(F)ccc2o1 [Example 296, (2S)-1-(5-fluorobenzofuran-2-yl)sulfonyl-N-[[3-[4-(trifluoromethyl)anilino]phenyl]methyl]pyrrolidine-2-carboxamide] | 7.9 nM
O=C(NCc1cccc(F)c1)[C@@H]1CCCN1S(=O)(=O)c1cc2ccccc2o1 [Example 59, (2S)-1-(benzofuran-2-ylsulfonyl)-N-[(3-fluorophenyl)methyl]pyrrolidine-2-carboxamide] | 540 nM
Cn1nc(C(F)(F)F)cc1-c1cc(CNC(=O)[C@@H]2CCCN2S(=O)(=O)c2cc3ccccc3o2)ccn1 [Example 127, (2S)-1-(benzofuran-2-ylsulfonyl)-N-[[2-[2-methyl-5-(trifluoromethyl)pyrazol-3-yl]-4-pyridyl]methyl]pyrrolidine-2-carboxamide] | 25 nM
O=C(NCc1ccnc(-c2ccc(C(F)(F)F)cc2O)c1)[C@@H]1CCCN1S(=O)(=O)c1cc2cnccc2o1 [Example 271, (2S)-1-furo[3,2-c]pyridin-2-ylsulfonyl-N-[[2-[2-hydroxy-4-(trifluoromethyl)phenyl]-4-pyridyl]methyl]pyrrolidine-2-carboxamide] | 4.4 nM
C[C@H](NS(=O)(=O)c1cc2ccccc2o1)C(=O)NCc1cc(-c2ccc(C(F)(F)F)cc2)ncn1 [Example 104, (2S)-2-(benzofuran-2-ylsulfonylamino)-N-[[6-[4-(trifluoromethyl)phenyl]pyrimidin-4-yl]methyl]propanamide] | 14 nM
N#Cc1cccc(COc2cccc(CNC(=O)[C@@H]3CCCN3S(=O)(=O)c3cc4ccccc4o3)c2)c1 [Example 2, (2S)-1-(benzofuran-2-ylsulfonyl)-N-[[3-[(3-cyanophenyl)methoxy]phenyl]methyl]pyrrolidine-2-carboxamide] | 7.9 nM
O=C(NCc1cccc(C[S+]([O-])c2ccc(C(F)(F)F)cc2)c1)[C@@H]1CCCN1S(=O)(=O)c1cc2ccccc2o1 (stereo partly drawn) [Example 325, (2S)-1-(benzofuran-2-ylsulfonyl)-N-[[3-[[4-(trifluoromethyl)phenyl]sulfinylmethyl]phenyl]methyl]pyrrolidine-2-carboxamide] | 560 nM
O=C(NCc1cccc([S+]([O-])Cc2ccccc2)c1)[C@@H]1CCCN1S(=O)(=O)c1cc2ccccc2o1 (stereo partly drawn) [Example 188, (2S)-1-(benzofuran-2-ylsulfonyl)-N-[(3-benzylsulfinylphenyl)methyl]pyrrolidine-2-carboxamide] | 890 nM
C[C@H](NS(=O)(=O)c1cc2ccccc2o1)C(=O)NCc1cccc(OCc2ccc(C#N)cc2)c1 [Example 182, (2S)-2-(benzofuran-2-ylsulfonylamino)-N-[[3-[(4-cyanophenyl)methoxy]phenyl]methyl]propanamide] | 94 nM
N#Cc1ccc(-c2ccnc(CNC(=O)[C@@H]3CCCN3S(=O)(=O)c3cc4cc(F)ccc4o3)c2)cc1 [Example 150, (2S)-N-[[4-(4-cyanophenyl)-2-pyridyl]methyl]-1-(5-fluorobenzofuran-2-yl)sulfonyl-pyrrolidine-2-carboxamide] | 13 nM
O=C(NCc1cccc(-c2ccc(OC(F)(F)F)cc2)c1)[C@@H]1CCCN1S(=O)(=O)c1cc2cc(F)ccc2o1 [Example 158, (2S)-1-(5-fluorobenzofuran-2-yl)sulfonyl-N-[[3-[4-(trifluoromethoxy)phenyl]-phenyl]methyl]pyrrolidine-2-carboxamide] | 0.83 nM
O=C(NCc1cc(-c2ccc(OC(F)(F)F)cc2)ncn1)[C@@H]1CCCN1S(=O)(=O)c1cc2cnccc2o1 [Example 306, (2S)-1-furo[3,2-c]pyridin-2-ylsulfonyl-N-[[6-[4-(trifluoromethoxy)phenyl]pyrimidin-4-yl]methyl]pyrrolidine-2-carboxamide] | 2.8 nM
O=C(NCc1cc(-c2ccc(OC(F)(F)F)cc2)ccn1)[C@@H]1CCCN1S(=O)(=O)c1cc2ccccc2o1 [Example 153, (2S)-1-(benzofuran-2-ylsulfonyl)-N-[[4-[4-(trifluoromethoxy)phenyl]-2-pyridyl]methyl]pyrrolidine-2-carboxamide] | 5.6 nM
C[C@H](NS(=O)(=O)c1cc2cc(F)ccc2o1)C(=O)NCc1cnnc(-c2ccc(C(F)(F)F)cc2)c1 [Example 249, (2S)-2-[(5-fluorobenzofuran-2-yl)sulfonylamino]-N-[[6-[4-(trifluoromethyl)phenyl]-pyridazin-4-yl]methyl]propanamide] | 170 nM
CC#CCN([C@@H](C)C(=O)NCc1ccnc(-c2ccc(C(F)(F)F)nc2)c1)S(=O)(=O)c1cc2cc(F)ccc2o1 [Example 313, (2S)-2-[but-2-ynyl-(5-fluorobenzofuran-2-yl)sulfonyl-amino]-N-[[2-[6-(trifluoromethyl)-3-pyridyl]-4-pyridyl]methyl]propanamide] | 37 nM

Structure (SMILES) | IC50
O=C(NCc1cccc(-c2ccc(C(F)(F)F)cc2)n1)[C@@H]1CCCN1S(=O)(=O)c1cc2cc(F)ccc2o1 [Example 144, (2S)-1-(5-fluorobenzofuran-2-yl)sulfonyl-N-[[6-[4-(trifluoromethyl)phenyl]-2-pyridyl]methyl]pyrrolidine-2-carboxamide] | 47 nM
C[C@H](NS(=O)(=O)c1cc2cc(F)ccc2o1)C(=O)NCc1ccc(O)c(-c2ncc(C(F)(F)F)cn2)c1 [Example 253, (2S)-2-[(5-fluorobenzofuran-2-yl)sulfonylamino]-N-[[4-hydroxy-3-[5-(trifluoromethyl)pyrimidin-2-yl]phenyl]methyl]propanamide] | 160 nM
C[C@H](NS(=O)(=O)c1cc2ccccc2o1)C(=O)NCc1cccc(OCC2CCOCC2)c1 [Example 183, (2S)-2-(benzofuran-2-ylsulfonylamino)-N-[[3-(tetrahydropyran-4-ylmethoxy)phenyl]methyl]propanamide] | 570 nM
N#Cc1ccc(-c2cc(CNC(=O)[C@@H]3CCCN3S(=O)(=O)c3cc4ccccc4o3)ccn2)cc1F [Example 119, (2S)-1-(benzofuran-2-ylsulfonyl)-N-[[2-(4-cyano-3-fluoro-phenyl)-4-pyridyl]methyl]pyrrolidine-2-carboxamide] | 12 nM
C[C@H](NS(=O)(=O)c1cc2cnccc2o1)C(=O)NCc1cc(-c2ccc(C(F)(F)F)cc2)ncn1 [Example 301, (2S)-2-(furo[3,2-c]pyridin-2-ylsulfonylamino)-N-[[6-[4-(trifluoromethyl)phenyl]pyrimidin-4-yl]methyl]propanamide] | 30 nM
O=C(NCc1ccccc1OC(F)(F)F)[C@@H]1CCCN1S(=O)(=O)c1cc2ccccc2o1 [Example 64, (2S)-1-(benzofuran-2-ylsulfonyl)-N-[[2-(trifluoromethoxy)phenyl]methyl]-pyrrolidine-2-carboxamide] | 100 nM
O=C(NCc1cccc(/C=C/c2ccc(C(F)(F)F)cc2)c1)[C@@H]1CCCN1S(=O)(=O)c1cc2cc(F)ccc2o1 [Example 297, (2S)-1-(5-fluorobenzofuran-2-yl)sulfonyl-N-[[3-[(E)-2-[4-(trifluoromethyl)phenyl]vinyl]phenyl]methyl]pyrrolidine-2-carboxamide] | 7.5 nM
COc1c(F)ccc(CNC(=O)[C@@H]2CCCN2S(=O)(=O)c2cc3ccccc3o2)c1F [Example 68, (2S)-1-(benzofuran-2-ylsulfonyl)-N-[(2,4-difluoro-3-methoxy-phenyl)methyl]pyrrolidine-2-carboxamide] | 390 nM
O=C(NCc1cccc(OCc2ccccc2)c1)[C@@H]1CCCN1S(=O)(=O)c1cc2ccccc2o1 [Example 37, (2S)-1-(benzofuran-2-ylsulfonyl)-N-[(3-benzyloxyphenyl)methyl]pyrrolidine-2-carboxamide] | 14 nM
O=C(NCc1cc(-c2ccc(C(F)(F)F)cn2)ccn1)[C@@H]1[C@H]2C[C@H]2CN1S(=O)(=O)c1cc2cc(F)ccc2o1 [Example 257, (1R,4S,5S)-3-(5-fluorobenzofuran-2-yl)sulfonyl-N-[[4-[5-(trifluoromethyl)-2-pyridyl]-2-pyridyl]methyl]-3-azabicyclo[3.1.0]hexane-4-carboxamide] | 64 nM
O=C(NCc1cccc(OCc2ccccc2)c1)[C@@H]1CCCN1S(=O)(=O)c1cc2cnccc2o1 [Example 267, (2S)-N-[(3-benzyloxyphenyl)methyl]-1-furo[3,2-c]pyridin-2-ylsulfonyl-pyrrolidine-2-carboxamide] | 6.4 nM
CC(C)COc1nc(CNC(=O)[C@@H]2CCCN2S(=O)(=O)c2cc3ccccc3o2)cc(-c2ccc(C(F)(F)F)cc2)n1 [Example 311, (2S)-1-(benzofuran-2-ylsulfonyl)-N-[[2-isobutoxy-6-[4-(trifluoromethyl)phenyl]pyrimidin-4-yl]methyl]pyrrolidine-2-carboxamide] | 3.7 nM
C[C@H](NS(=O)(=O)c1cc2cc(F)ccc2o1)C(=O)NCc1cc(-c2cnc(C(F)(F)F)nc2)ncn1 [Example 248, (2S)-2-[(5-fluorobenzofuran-2-yl)sulfonylamino]-N-[[6-[2-(trifluoromethyl)pyrimidin-5-yl]pyrimidin-4-yl]methyl]propanamide] | 20 nM
CNc1nc(CNC(=O)[C@@H]2CCCN2S(=O)(=O)c2cc3ccccc3o2)cc(-c2ccc(C(F)(F)F)cc2)n1 [Example 326, (2S)-1-(benzofuran-2-ylsulfonyl)-N-[[2-(methylamino)-6-[4-(trifluoromethyl)phenyl]pyrimidin-4-yl]methyl]pyrrolidine-2-carboxamide] | 29 nM
O=C(NCc1ccc(-c2ccc(C(F)(F)F)cc2)cc1)[C@@H]1CCCN1S(=O)(=O)c1cc2ccccc2o1 [Example 165, (2S)-1-(benzofuran-2-ylsulfonyl)-N-[[4-[4-(trifluoromethyl)phenyl]-phenyl]methyl]pyrrolidine-2-carboxamide] | 190 nM
